Experimental findings from patent US5506354A, “Imidazolylpiperazinyl steroids” (The Upjohn Company, priority 1992, dated 1996) are described below.

The test system of experiment [1] is serum and arterial cholesterol in quail fed an atherogenic diet. The experiment in a line: Antiatherosclerosis Screen in Susceptible to Experimental Atherosclerosis (SEA) Japanese Quail. In kind it is in vivo. The method, then: While not necessary, some minor modifications for extraction of cholesterol from the artery have been made. Time are as follows: frozen arteries are homogenized in hexane/isopropanol (3/2) and the volume adjusted with Triton 100 solution (1.5% in hexane/isopropanol) to 7 ml. After standing 12 hr at 20°-25°, the supernatant, obtained by low speed centrifugation is evaporated until dry and thru the residue is suspended in 0.5 ml of 5% Triton 100 in isopropanol. This suspension is incubated for 10 min at 45° to dissolve the material. This solution as well as the diluted serum samples are analyzed for cholesterol by standard clinical chemistry analyzer methods. According to the above procedure compounds which decrease serum or arterial cholesterol >30% are considered to be "active".

Experiment [2] relates to AcylCoA:Cholesterol Acyltransferase (ACAT). The experiment in a line: AcylCoA:Cholesterol Acyltransferase (ACAT) Inhibition Assay. The class given is cell-based. The arrangement: key to inhibition of ACAT (activity in words): compounds which inhibit ACAT activity equal to, or greater than, that of chloropromazine are considered "active". As to conditions: for inhibition of ACAT (activity in words): preferred Fu5AH cells, compared with chloropromazine. From the text:
ACAT esterifies arterial cholesterol which is a key reaction in the development of atherosclerosis. The procedure of Bell, Can. […] In the ACAT assay it is preferred to use Fu5AH cells, see Lipids 9, 526 (1974). According to this procedure, compounds which inhibit ACAT activity equal to, or greater than, that of chloropromazine are considered "active".

In experiment [3] the test system is MDA formation. The experiment in a line: Malonyldialdehyde (MDA) Formation Assay (rat brain synaptosomes). The settings on record: 10 min at 37°, pH 7.0; active = 50% or more at 200 μM or less. In kind it is biochemical. On the procedure:
Since lipid peroxidation is involved in the pathophysiology of center nervous system trauma, compounds which inhibit MDA formation are useful in treating the conditions listed below.
While not necessary to determine MDA formation, the above assays have been modified as follows: rat brain synaptosomes are prepared as described in the Example about the conjugated diene assay, except that the final wash of the synaptosomes and final suspension are in physiological (normal) saline in which the pH has been adjusted to 7.0. The synaptosomes are incubated for 10 min at 37° in physiological (normal) saline pH 7.0 (total volume=100 ul) containing; 10 ul synaptosomal suspension, 10% DMSO plus or minus drug, 150 uM Fe^+++ and 50 uM Fe++. The incubation is started by the rapid addition of iron to the otherwise complete reaction. The iron solutions are prepared fresh as ferric chloride and ferrous ammonium sulfate in argon-purged water. Following the 10 min incubation, the reaction is stopped by the addition of 500 ul ice-cold 12% trichloroacetic acid prepared in 0.5N hydrochloric acid. Water (300 ul) is then added along with 100 ul of freshly prepared thiobarbituric acid (3.3% in 0.5N sodium hydroxide) and 10 ul of 5 mM desferrioxamine. The sample is then heated in a boiling water bath for 20 minutes. The samples are cooled and centrifuged for 15 minutes at 1500×g and the absorbence of the supernatant fraction is read at 532 nm. The % inhibition of MDA formation is calculated by dividing the absorbance of sample containing drug by the absorbence of samples incubated without drug. Reaction blanks are samples incubated in the absence of iron. A compound that inhibits MDA formation by 50% or more at a concentration of 200 μM or less is considered "active".

Experiment [4] concerns arachidonic acid. As to the kind of experiment: Arachidonic Acid Antagonism Assay (AAAA), LD50 of sodium arachidonate. The class given is in vivo, Charles River male CF-1 mice. The settings on record: 100 mg/kg; test compound IV. An outline of the steps:
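Male CF-1 mice (18–22 g) received test compound IV in 1.0% Tween-80/0.1% HCl. LD50 was derived by Spearman-Karber (log dose interval 0.05, N=6), and activity was defined as LD50 elevation outside the control's 95% confidence interval.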

The subject of experiment [5] is mucous secretion. The experiment in a line: Inhibition of mucous secretion assay of Johnson. As to conditions: for inhibition of mucous secretion (activity in words): induced mucous secretions. The source says:
According to this procedure compounds which inhibit or block enhancement of induced mucous secretions when tested are considered to be "active".

Experiment [6] deals with mouse head injury. The experiment in a line: in vivo mouse head injury procedure of Hall (1 hr neurological recovery, grip test). As to conditions: statistically significant (p<0.05).
The test system of experiment [7] is conjugated diene formation. As to the kind of experiment: Conjugated Diene Formation Assay (rat brain synaptosomes). The settings on record: 100 μM (or less) of drug; active = inhibition by 50% or more. In kind it is biochemical. From the text: The formation of conjugated dienes as assayed by Braughler, J. Neurochem., 44, 1282 (1985), Bucher, Fund. Applied Tox., 3, 222 (1983) and Tein, Arch. Biochem. Biophy., 216, 142 (1982) is a standard pharmacological laboratory procedure useful for identifying compounds which inhibit lipid peroxidation. Since lipid peroxidation is involved in the pathophysiology of central nervous system trauma, compounds which inhibit conjugated diene formation are useful in treating the conditions listed below.
44, 1282 (1985). Synaptosomal suspension (10 μl) is added to 1 ml of physiological (normal) saline containing 1% Lubrol PX (Sigma Chemical Co. St. Louis, Mo.), 100 μM hydrogen peroxide and 100 μM (or less) of the drug to be tested prepared in either absolute ethanol or water depending upon solubility. The reaction is started by the rapid addition of 200 μM ferrous ammonium sulfate prepared in argon-purged water. The sample is rapidly mixed and the change in absorbence at 232 nm is followed in a Gifford Response Spectrophotometer equipped with a rapid sampler. Due to the rapidity of the reaction, rapid addition of the iron, rapid mixing and sampling are obligatory to the accuracy of the assay. For best results absorbence readings of one/sec should be started within 5 sec following the addition of iron. The initial linear rate of absorbence change during the first 30 sec of reaction are compared with the rate of a reaction containing all reagents except synaptosomes. The difference in rates is the rate of conjugated diene formation. Rates with drug are compared to rates obtained in the absence of drug and the % inhibition is calculated. A compound that inhibits conjugated diene formation by 50% or more is considered to be "active".

Experiment [8] concerns angiogenesis. As to the kind of experiment: Chick embryo assay of Folkman (inhibition of angiogenesis / tumor growth). The class given is in vivo. The settings on record: 50 μg/10 μl in the presence of heparin. On the procedure:
According to this procedure compounds which are considered to be "active" (i.e. antiangiogenic) give an avascular zone of 4 mm or greater in some embryos when tested at 50 μg/10 μl in the presence of 50 μg/10μ of heparin.

For experiment [9], the system named is interleukin-1. The experiment in a line: Inhibition of interleukin-1 induced T cell proliferation. The class given is cell-based. The settings on record: active = greater than 30% at 10^-6 M. From the text: The inhibition of interleukin-1 induced T cell proliferation assay, Proc. Nat. […] Since people with arthritis make excess interleukin 1, compounds which inhibit the activity of interleukin 1 are useful in the treatment of arthritis. According to this procedure compounds which inhibit the activity of interleukin 1 greater that 30% at 10^-6 M are considered to be "active".

Counter-ions that a name gives are not always drawn.

For `C[C@]12CCC(=O)C=C1CC[C@@H]1C2=CC[C@@]2(C)[C@H]1CC[C@]2(O)C(=O)CN1CCN(c2ccccn2)CC1.Cl` [Example 3, 17α-Hydroxy-21-[4-(2-pyridinyl)-1-piperazinyl]pregna-4,9(11)-diene-3,20-dione hydrogen chloride salt], the “reduction of arterial cholesterol (in words)” value in experiment [1] (artery) was “demonstrates reduction of serum and arterial cholesterol”. In addition, the “reduction of serum cholesterol (in words)” value in [1] (serum) is “demonstrates reduction of serum and arterial cholesterol”. Further, the “inhibition of ACAT (activity in words)” value in experiment [2] was “active”.
As to `CCN(CC)c1nc(N2CCCCC2)cc(N2CCN(CC(=O)[C@@]3(O)CC[C@H]4[C@@H]5CCC6=CC(=O)CC[C@]6(C)C5=CC[C@@]43C)CC2)n1.Cl.O` [Example 17, 17α-Hydroxy-21-[4-[2-(diethylamino)-6-(1-piperidinyl)-4-pyrimidinyl]-1-piperazinyl]pregna-4,9(11)-diene-3,20-dione hydrochloride hydrate], the “% Inhibition of ACAT” value in [2] (5 μg/ml) is reported as 32.2%. Further, the “inhibition of ACAT (activity in words)” value in [2] is “active”. The “inhibition of MDA formation (activity in words)” value in experiment [3] was “demonstrate such activity”. The “% of Control LD50 100 mg/kg” value in experiment [4] was 150%.
Take `CCN(CC)c1cc(N2CCN(CC(=O)[C@@]3(O)[C@H](C)C[C@H]4[C@@H]5CCC6=CC(=O)C=C[C@]6(C)C5=CC[C@@]43C)CC2)nc(N(CC)CC)n1.Cl.O` [Example 18, 21-[4-[2,6-Bis(diethylamino)-4-pyrimidinyl]-1-piperazinyl]-17α-hydroxy-16α-methylpregna-1,4,9(11)-triene-3,20-dione hydrochloride hydrate]: the “inhibition of ACAT (activity in words)” value in experiment [2] is reported as “active”. The “inhibition of mucous secretion (activity in words)” value in experiment [5] was “demonstrate such activity”.
As to `CCN(CC)c1cc(N2CCN(CC(=O)[C@H]3CC[C@H]4[C@@H]5CCC6=CC(=O)CC[C@]6(C)[C@H]5[C@H](O)C[C@]34C)CC2)nc(N(CC)CC)n1.Cl.Cl` [Example 69, 21-[4-[2,6-bis(diethylamino)-4-pyrimidinyl]-1-piperazinyl]-11α-hydroxypregn-4-ene-3,20-dione dihydrochloride], the “% Increase in 1 hr Post-Injury Grip Test Scores After 3 mg/kg” value (“% Increase” below) in experiment [6] is recorded as 199.7%.
For `CCN(CC)c1cc(N2CCN(CC(=O)[C@@]3(O)CC[C@H]4[C@@H]5CCC6=CC(=O)CC[C@]6(C)[C@H]5[C@H](O)C[C@@]43C)CC2)nc(N(CC)CC)n1.Cl.Cl` [Example 70, 21-[4-[2,6-bis(diethylamino)4-pyrimidinyl]-1-piperazinyl]-11α,17α-dihydroxypregn-4-ene-3,20-dione dihydrochloride], the “% Increase” value in [6] is on record as 148.3%.
On to `CS(=O)(=O)O.CS(=O)(=O)O.C[C@@H]1C[C@H]2[C@@H]3CCC4=CC(=O)C=C[C@]4(C)C3=CC[C@]2(C)[C@H]1C(=O)CN1CCN(c2cc(N3CCCC3)nc(N3CCCC3)n2)CC1` [Example 83, 16α-Methyl-21-[4-(2,6-bis(1-pyrrolidinyl)-4-pyrimidinyl]-1-piperazinyl]pregna-1,4,9(11)-triene-3,20-dione dimethane-sulfonate], for which the “inhibition of conjugated diene formation (activity in words)” value in experiment [7] was “demonstrate such activity”. Further, the “inhibition of angiogenesis (activity in words)” value in experiment [8] was “demonstrate inhibition of angiogenesis”. In addition, the “inhibition of interleukin 1 (activity in words)” value in experiment [9] is given as “demonstrate inhibition of interleukin 1”. For the same compound, in experiment [3], the “inhibition of MDA formation (activity in words)” value is given as “demonstrate such activity”. Also, in experiment [5], the “inhibition of mucous secretion (activity in words)” value was “demonstrate such activity”. In addition, the “preferred mucous inhibitors by the test results (in words)” value in experiment [5] (test results disclose) is given as “preferred mucous inhibitors”.
`CS(=O)(=O)O.C[C@@H]1C[C@H]2[C@@H]3CCC4=CC(=O)C=C[C@]4(C)C3=CC[C@]2(C)[C@H]1C(=O)CN1CCN(c2cc(N3CCCC3)nc(N3CCCC3)n2)CC1.O` [Example 109, 16α-Methyl-21-[4-[2,6-bis(1-pyrrolidinyl)-4-pyrimidinyl]-1-piperazinyl]-pregna-1,4,9(11)-triene-3,20-dione-monomethanesulfonate monohydrate]: in experiment [6], the “% Increase” value amounted to 184.4%.
The same measure, in the same setting: as for `CCNc1cccnc1N1CCN(CC(=O)[C@H]2[C@H](C)C[C@H]3[C@@H]4CCC5=CC(=O)C=C[C@]5(C)C4=CC[C@@]32C)CC1` [Example 127, 21-[4-[3-(Ethylamino)-2-pyridinyl]piperazinyl]-16α-methylpregna-1,4,9(11)-triene-3,20-dione hydrochloride], the figure is 200.8%.
